PMC6600523, “Interference with Amyloid-β Nucleation by Transient Ligand Interaction” (Molecules, 2019)
Read-outs that look alike come from different tables or passages of the source. Where a SMILES comes first, the peptide text is derived from it. [ ]: non-standard residue; d: D form.

Experiments:
[1] = target: T1, Aβ42 (Homo sapiens, UniProt P05067); test: Absorbance-based AUC, size distribution of Aβ42 after 24 h; format: biochemical; conditions: 20 μM Aβ42 with 2 μM D3, 24 h, 20 mM sodium phosphate, 50 mM NaCl pH 7.4, 20 °C; absorbance AUC at 210 nm, 45,000 rpm; compared with Aβ42 alone
T1 construct: purchased Bachem H-1368.1000
Method: In brief, 380 μL samples were loaded into 12-mm double-sector aluminum cellsm and were thermally equilibrated prior to the final centrifugation. The centrifugation was performed at 45,000 rpm, 20 °C for 15.5 h. Sedimentation profiles were recorded at 210 nm, with a radial resolution of 20 μm.
All sedimentation profiles were subjected to the software package SEDFIT (version 15.01b) for data evaluation. The data was analyzed with the continuous distribution c(s) Lamm equation model to obtain the sedimentation coefficient distributions. Fitting parameters (Table S1) including the buffer density and viscosity were determined using Sednterp (version 20130813BETA). […] Final graphs were generated using GUSSI (version 1.2.1) and sedimentation coefficients were standardized to s-values in pure water at 20 °C (s20,w).

[2] = target: T1, Aβ42; test: Circular dichroism spectroscopy, secondary structure transition of Aβ42; format: biochemical; conditions: 20 mM sodium phosphate, 50 mM NaF pH 7.4, 20 °C
Method: NaF was used to substitute NaCl in this measurement to maintain the ionic strength of the buffer, so as to avoid the strong absorbance of NaCl in the far-UV area. […] All samples were prepared on ice before being transferred to 1 mm path length quartz cuvettes. The final volume of each sample was 200 μL. Circular dichroism (CD) spectra were recorded from 260 nm to 190 nm using a J-815 spectropolarimeter (Jasco, Tokyo, Japan). All measurements were carried out with a step size of 0.5 nm and a bandwidth of 2 nm. The scanning speed was set to 100 nm/min and 10 scans were accumulated for each sample. […] Samples were maintained at 20 °C within the measurement duration of 120 h, and were prepared in triplicate. CD spectra for all samples were deconvoluted using the online server Dichroweb by applying the CDSSTR algorithm and reference dataset Set 7 [87].

[3] = target: T1, Aβ42; test: Atomic force microscopy, morphologies of Aβ42 samples; format: biochemical; conditions: 20 mM sodium phosphate, 50 mM NaCl pH 7.4, 20 °C, AFM in air, AC mode
Method: At 48 h and 120 h, 10 μL samples were pipetted onto freshly cleaved mica, and were further incubated at room temperature for 30 min. Mica with deposited samples were rinsed with ultrapure water for three times and finally dried with nitrogen gas. Atomic force microscopy (AFM) imaging was carried out in air at room temperature, using silicon cantilevers (OMCL AC160 TS, Olympus, Tokyo, Japan) and a JPK NanoWizard 3 microscope (JPK Instruments AG, Berlin, Germany) in AC mode. The nominal tip diameter of the cantilever was 7 nm. AFM height images at 10 × 10 μm^2 and 1 × 1 μm^2 (both with a resolution of 1024 × 1024 pixel) for all samples were taken with a line rate of 1 Hz and respective scanning speeds of 22.55 μm/s and 2.48 μm/s. Data was processed with JPK NanoWizard SPM data processing software.

[4] = target: T2, FITC-Aβ42 (Homo sapiens, UniProt P05067); test: Microscale thermophoresis, D3 titrated to FITC-Aβ42; format: binding
T2 construct: purchased Bachem M-2585.1000
Method: In detail, FITC-Aβ42 was dissolved in 20 mM sodium phosphate, 50 mM NaCl (pH 7.4—slightly alkali), 0.01% (v/v) Tw20 to obtain 80 nM stock solutions. 300 μM D3 was prepared in the same buffer. FITC-Aβ42 was then titrated with D3 solutions in 1:1 serial dilution steps to prepare 16 samples, in which the concentration of FITC-Aβ42 was kept constant at 40 nM, and the starting concentration of D3 was 150 μM. Samples were loaded into standard capillaries, and the thermophoresis was detected using a Monolith NT.115 (NanoTemper Technologies GmbH, Munich, Germany). The experiment was performed with 40% LED power and 60% microscale thermophoresis (MST) power. […] The final concentration of FITC-D3 in each sample was set to 40 nM. The LED power and MST power were adjusted to 30% and 60%, respectively. The on and off time for the IR laser was set to 30 s and 5 s. Since the working concentration of labeled molecules was rather low in this measurement, any signal loss due to surface adsorption might bias the data acquisition. Therefore trace amounts of Tw20 and PEI were used as additives in solution to minimize the unspecific surface adsorption of FITC-Aβ42 and FITC-D3 in capillaries, respectively. All measurements were conducted at 22 °C, and samples were prepared in triplicate.
The data was evaluated with PALMIST software (version 1.2.3) to obtain the dissociation constants. Changes in the normalized fluorescence ( ∆Fn ) with concentrations of the titrant were quantified and fitted with the 1:1 binding model available in the software using a 68.3% confidence interval. The graphic outputs were created using GUSSI (version 1.2.1).

[5] = target: n-terminally biotinylated Aβ42 monomers; conditions: read-out: KD for D3 and Aβ42 by SPR; n-terminally biotinylated Aβ42 monomers fixed on sensor chips via biotin-streptavidin; cited from earlier work
[6] = target: T1, Aβ42; test: ThT assay, fibrillation kinetics of Aβ42; format: biochemical; conditions: 50 mM NaCl pH 7.4, 20 °C, AmyloFit fit, triplicate
Method: ThT was added at a final concentration of 5 μM in all samples. The final volume of each sample was 200 μL. Samples were prepared on ice and were pipetted into a 96-well plate afterwards. The plate was sealed with a microplate sealing film. All measurements were conducted at 20 °C with a microplate reader (Infinite M200, Tecan, Männedorf, Switzerland). The fluorescence was recorded at an excitation wavelength (λex) of 445 nm and an emission wavelength (λem) of 485 nm every 30 min for 120 h. […] All samples were prepared in triplicate.
The ThT data was then subjected to the online server AmyloFit with a customized sigmoidal Equation (1) to determine the lag time tlag , and the half completion time of the aggregation process t1/2 , according to previous studies. (1) It=k0t+A/1+exp−kt−t1/2, where k0 represents the slope of the baseline, A is the amplitude, k denotes the apparent elongation rate constant. The lag time tlag can be derived from the intercept between the time axis and the tangent with slope k from the midpoint of the fitted sigmoidal curve, which is given by the following Equation (2):(2) tlag=t1/2−2/k

[7] = 20 μM Aβ42 with (label D3) or without (label Aβ42) 2 μM D3, 20 mM sodium phosphate, 5 μM ThT
[8] = 20 μM Aβ42 with (label D3, 10:1) or without (label Aβ42) 2 μM D3, 55 mM Tris-HCl

T2 sequence (P05067 672-713 limits assumed): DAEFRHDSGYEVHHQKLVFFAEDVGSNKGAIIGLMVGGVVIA
T1 sequence (P05067 672-713 limits assumed): as above

CC(C)C[C@@H](NC(=O)[C@@H](CCCNC(=N)N)NC(=O)[C@H](NC(=O)[C@@H](CCCNC(=N)N)NC(=O)[C@H]1CCCN1C(=O)[C@H](N)CCCNC(=N)N)[C@H](C)O)C(=O)N[C@H](Cc1c[nH]cn1)C(=O)N[C@@H](C(=O)N[C@H](Cc1c[nH]cn1)C(=O)N[C@H](CCCNC(=N)N)C(=O)N[C@H](CC(N)=O)C(=O)N[C@H](CCCNC(=N)N)C(N)=O)[C@H](C)O [D3] (H-[dR][dP][dR][dT][dR][dL][dH][dT][dH][dR][dN][dR]-NH2)
Size distribution of Aβ42 samples with D3 after 24 h [1]: no such large aggregates
Effect of delayed D3 addition on the structural transformation of Aβ42 ([2]; 4 μM D3 added into 40 μM Aβ42 after 33 h preincubation): visibly delayed the structural transformation of Aβ42
Ellipticity at 217 nm of the Aβ42 sample with D3 relative to Aβ42 alone ([2]; 40 μM Aβ42 with 4 μM D3, at 120 h, triplicate): about 72%
Morphology of Aβ42 incubated with D3, 48 h ([3]; 40 μM Aβ42 with 4 μM D3 (0.1 equimolar), 48 h): no fibrils
Morphology of Aβ42 incubated with D3, 120 h ([3]; 40 μM Aβ42 with 4 μM D3, 120 h): did not stop the fibril formation
Kd ([4]; KD for D3 and Aβ42 (summary of both MST setups), both possible setups): ~0.4 µM
Kd ([4]; MST, 40 nM FITC-Aβ42, D3 from 150 μM in 1:1 serial dilution, 20 mM sodium phosphate, 50 mM NaCl pH 7.4, 0.01% Tw20, 22 °C, 1:1 binding model (PALMIST), brackets = 68.3% confidence interval, triplicate, read-out: KD of D3 binding to FITC-Aβ42): 0.27 µM
Kd ([4]; MST, 40 nM FITC-Aβ42, 5 mM sodium phosphate, 50 mM NaCl pH 7.4, 0.01% Tw20, 22 °C, 1:1 binding model, brackets = 68.3% confidence interval, read-out: KD of FITC-Aβ42 and D3 in low ionic strength buffer): 0.088 µM
Kd [5]: ~4 µM
Half completion time t1/2 of fibrillation kinetics [6, 7]: 79.3 ± 2.3 h
Lag time tlag of fibrillation kinetics [6, 7]: 67.6 ± 3.8 h
Slope k of fibrillation kinetics [6, 7]: 0.18 ± 0.07
Half completion time t1/2 of fibrillation kinetics, Tris-HCl buffer [6, 8]: 74.5 ± 2.8 h
Lag time tlag of fibrillation kinetics, Tris-HCl buffer [6, 8]: 59.3 ± 2.2 h
Slope k of fibrillation kinetics, Tris-HCl buffer [6, 8]: 0.14 ± 0.04
